Assay results from patent publication US20240208992A1, “MACROCYCLES AS CFTR MODULATORS” (Idorsia Pharmaceuticals Ltd, priority 2021, published 2024).

Molecular target: human F508del-CFTR (Homo sapiens, UniProt P13569, DEL508-508)
Test: F508del-CFTR cell surface expression (corrector activity), DiscoveRx ß-galactosidase complementation chemiluminescence assay in recombinant U2OS cell line;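 also: U2OS cells co-expressing ProLink-tagged F508del-CFTR and a membrane-anchored enzyme acceptor, where more surface CFTR restores β-galactosidase activity measured by chemiluminescence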
Conditions: for EC50: EC50, F508del-CFTR cell surface expression; for Emax: U2OS
[1] = U2OS cells, 16h compound incubation, geomean of several measurements
[2] = in relation to the Emax of the corrector lumacaftor (=100%), U2OS cells, 16h compound incubation, arithmetic mean
[3] = U2OS cell line, 16h compound incubation, geomean values
[4] = in relation to the Emax of the corrector lumacaftor (=100%), U2OS cell line, 16h compound incubation, arithmetic mean values
[5] = U2OS cells, 16h compound incubation, geomean values
[6] = in relation to Emax of corrector lumacaftor (=100%), arithmetic mean values

human F508del-CFTR, sequence (P13569 with tags, fused parts or gaps DEL508-508): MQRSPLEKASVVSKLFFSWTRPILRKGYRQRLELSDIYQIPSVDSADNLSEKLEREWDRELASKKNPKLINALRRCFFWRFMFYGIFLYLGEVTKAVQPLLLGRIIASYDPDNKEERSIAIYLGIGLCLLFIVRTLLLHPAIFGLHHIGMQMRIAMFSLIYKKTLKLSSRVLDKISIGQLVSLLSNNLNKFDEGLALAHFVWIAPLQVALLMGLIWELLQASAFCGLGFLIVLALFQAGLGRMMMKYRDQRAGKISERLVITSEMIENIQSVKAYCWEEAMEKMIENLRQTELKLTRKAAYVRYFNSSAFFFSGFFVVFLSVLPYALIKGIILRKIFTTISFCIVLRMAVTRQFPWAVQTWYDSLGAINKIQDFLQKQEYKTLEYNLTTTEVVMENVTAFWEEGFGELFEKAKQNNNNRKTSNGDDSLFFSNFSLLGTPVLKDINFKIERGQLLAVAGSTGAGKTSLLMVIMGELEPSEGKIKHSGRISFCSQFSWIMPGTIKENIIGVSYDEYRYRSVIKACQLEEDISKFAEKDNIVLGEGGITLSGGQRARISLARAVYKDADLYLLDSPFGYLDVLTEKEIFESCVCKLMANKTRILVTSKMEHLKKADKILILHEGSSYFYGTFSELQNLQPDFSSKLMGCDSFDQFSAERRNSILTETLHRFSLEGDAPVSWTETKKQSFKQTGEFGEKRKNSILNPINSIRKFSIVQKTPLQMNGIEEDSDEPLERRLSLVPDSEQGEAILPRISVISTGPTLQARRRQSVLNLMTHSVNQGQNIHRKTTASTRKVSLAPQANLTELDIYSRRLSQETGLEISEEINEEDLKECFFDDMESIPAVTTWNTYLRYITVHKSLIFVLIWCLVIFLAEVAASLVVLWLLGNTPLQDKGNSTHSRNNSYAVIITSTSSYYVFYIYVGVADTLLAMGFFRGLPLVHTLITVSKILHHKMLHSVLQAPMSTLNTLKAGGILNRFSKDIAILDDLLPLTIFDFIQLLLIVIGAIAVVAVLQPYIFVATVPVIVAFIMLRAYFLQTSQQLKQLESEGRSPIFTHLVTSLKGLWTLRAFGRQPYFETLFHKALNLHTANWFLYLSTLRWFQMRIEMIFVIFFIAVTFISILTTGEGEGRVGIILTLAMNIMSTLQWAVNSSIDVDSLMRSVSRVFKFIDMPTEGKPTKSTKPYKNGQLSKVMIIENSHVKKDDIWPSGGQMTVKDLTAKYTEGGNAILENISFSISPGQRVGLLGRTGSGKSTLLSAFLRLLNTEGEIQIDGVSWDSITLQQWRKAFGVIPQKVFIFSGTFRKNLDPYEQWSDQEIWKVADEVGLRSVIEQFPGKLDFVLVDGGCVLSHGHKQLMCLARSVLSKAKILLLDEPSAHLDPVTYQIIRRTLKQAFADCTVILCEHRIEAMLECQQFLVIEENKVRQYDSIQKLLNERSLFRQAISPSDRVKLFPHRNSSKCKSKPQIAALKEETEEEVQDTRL

EC50 [3] | Emax [4] | SMILES | also measured
261 nM | 230% | CC(C)C[C@H]1C(=O)N2CCCC[C@@H]2C(=O)N[C@H](Cc2ccccc2)COc2cnc3ccccc3c2C(=O)N[C@H](C(=O)NCCc2cc(F)cc(F)c2)CC(=O)N1C [Example 126, (9S,13S,19aR,22R)-22-benzyl-N-(3,5-difluorophenethyl)-13-isobutyl-12-methyl-7,11,14,20-tetraoxo-7,8,9,10,11,12,13,14,17,18,19,19a,20,21,22,23-hexadecahydro-16H-pyrido[2′,1′:6,7][1]oxa[4,7,10,14]tetraazacycloheptadecino[17,16-c]quinoline-9-carboxamide] | 
324 nM | 292% | CC(C)C[C@H]1C(=O)N2CCCC[C@@H]2C(=O)N[C@H](Cc2ccccc2)COc2cnc3ccccc3c2C(=O)N[C@H](C(=O)NCCc2ccc(-c3ncccn3)cc2)CC(=O)N1C [Example 122, (9S,13S,19aR,22R)-22-benzyl-13-isobutyl-12-methyl-7,11,14,20-tetraoxo-N-(4-(pyrimidin-2-yl)phenethyl)-7,8,9,10,11,12,13,14,17,18,19,19a,20,21,22,23-hexadecahydro-16H-pyrido[2′,1′:6,7][1]oxa[4,7,10,14]tetraazacycloheptadecino[17,16-c]quinoline-9-carboxamide] | 

Continued, compound first:

SMILES | EC50 [3] | Emax [4] | also measured
COc1noc(CCNC(=O)[C@@H]2CC(=O)N(C)[C@@H](CC(C)C)C(=O)N(C)[C@H](Cc3nc(C(F)(F)F)no3)C(=O)N[C@H](Cc3ccccc3)COc3cc(C)c4ncccc4c3C(=O)N2)n1 [Example 927, (3S,7S,10R,13R)-13-benzyl-7-isobutyl-N-(2-(3-methoxy-1,2,4-oxadiazol-5-yl)ethyl)-6,9,17-trimethyl-1,5,8,11-tetraoxo-10-((3-(trifluoromethyl)-1,2,4-oxadiazol-5-yl)methyl)-1,2,3,4,5,6,7,8,9,10,11,12,13,14-tetradecahydro-[1]oxa[4,7,10,14]tetraazacycloheptadecino[16,17-f]quinoline-3-carboxamide] |  |  | EC50 [1]: 27 nM; Emax [2]: 492%
COc1cccc(CCNC(=O)[C@@H]2CC(=O)N(C)[C@@H](CC(C)C)C(=O)N(C)CC(=O)N[C@H](Cc3ccccc3)COc3cc4ccccc4cc3C(=O)N2)c1 [Example 238, (3R,9S,13S)-3-benzyl-9-isobutyl-N-(3-methoxyphenethyl)-7,10-dimethyl-5,8,11,15-tetraoxo-2,3,4,5,6,7,8,9,10,11,12,13,14,15-tetradecahydronaphtho[2,3-p][1]oxa[4,7,10,14]tetraazacycloheptadecine-13-carboxamide] | 375 nM | 153% | 
CCOCC[C@@H]1C(=O)N[C@H](Cc2ccccc2)COc2ccc3ncc(F)cc3c2C(=O)N[C@H](C(=O)NCCc2nc(OC)no2)CC(=O)N(C)[C@@H](CC(C)C)C(=O)N1C [Example 929, (3S,7S,10R,13R)-13-benzyl-10-(2-ethoxyethyl)-20-fluoro-7-isobutyl-N-(2-(3-methoxy-1,2,4-oxadiazol-5-yl)ethyl)-6,9-dimethyl-1,5,8,11-tetraoxo-1,2,3,4,5,6,7,8,9,10,11,12,13,14-tetradecahydro-[1]oxa[4,7,10,14]tetraazacycloheptadecino[16,17-f]quinoline-3-carboxamide] |  |  | EC50 [1]: 306 nM; Emax [2]: 513%
CC(C)C[C@H]1C(=O)N2CCOC[C@@H]2C(=O)N[C@H](Cc2ccccc2)COc2cnc3ccccc3c2C(=O)N[C@H](C(=O)NCCc2csc(C(C)C)n2)CC(=O)N1C [Example 46, (9S,13S,19aR,22R)-22-benzyl-13-isobutyl-N-(2-(2-isopropylthiazol-4-yl)ethyl)-12-methyl-7,11,14,20-tetraoxo-7,8,9,10,11,12,13,14,16,17,19,19a,20,21,22,23-hexadecahydro-[1,4]oxazino[3′,4′:6,7][1]oxa[4,7,10,14]tetraazacycloheptadecino[17,16-c]quinoline-9-carboxamide] | 679 nM | 137% | 
CCOc1cccc2c1C(=O)N[C@H](C(=O)NCCc1cccc(OC)c1)CC(=O)N(C)[C@@H](CC(C)C)C(=O)N1CCCC[C@@H]1C(=O)N[C@H](Cc1ccccc1)CO2 [Example 280, (7S,11S,20R,22aR)-20-benzyl-14-ethoxy-7-isobutyl-N-(3-methoxyphenethyl)-8-methyl-6,9,13,22-tetraoxo-1,3,4,6,7,8,9,10,11,12,13,19,20,21,22,22a-hexadecahydro-2H-benzo[p]pyrido[2,1-f][1]oxa[4,7,10,14]tetraazacycloheptadecine-11-carboxamide] | 297 nM | 188% | 
CC(C)C[C@H]1C(=O)N2CCCC[C@@H]2C(=O)N[C@H](Cc2ccccc2)COc2cnc3ccccc3c2C(=O)N[C@H](C(=O)NCCc2c(F)cc(F)cc2F)CC(=O)N1C [Example 73, (9S,13S,19aR,22R)-22-benzyl-13-isobutyl-12-methyl-7,11,14,20-tetraoxo-N-(2,4,6-trifluorophenethyl)-7,8,9,10,11,12,13,14,17,18,19,19a,20,21,22,23-hexadecahydro-16H-pyrido[2′,1′:6,7][1]oxa[4,7,10,14]tetraazacycloheptadecino[17,16-c]quinoline-9-carboxamide] | 214 nM | 253% | 
COc1cccc2c1C(=O)N[C@H](C(=O)NCCc1noc(C3CC3)n1)CC(=O)N(C)[C@@H](CC(C)C)C(=O)N(C)[C@H](Cc1nc(-c3ccc(F)cn3)no1)C(=O)N[C@H](Cc1ccccc1)CO2 [Example 782, (3R,6R,9S,13S)-3-benzyl-N-(2-(5-cyclopropyl-1,2,4-oxadiazol-3-yl)ethyl)-6-((3-(5-fluoropyridin-2-yl)-1,2,4-oxadiazol-5-yl)methyl)-9-isobutyl-16-methoxy-7,10-dimethyl-5,8,11,15-tetraoxo-2,3,4,5,6,7,8,9,10,11,12,13,14,15-tetradecahydropyrido[3,4-p][1]oxa[4,7,10,14]tetraazacycloheptadecine-13-carboxamide] |  |  | EC50 [5]: 859 nM; Emax [6]: 439%
CC(C)C[C@H]1C(=O)N2CCCC[C@@H]2C(=O)N[C@H](Cc2ccccc2)COc2ccc3ncn(C)c3c2C(=O)N[C@H](C(=O)NCCc2cccc(-n3nccn3)c2)CC(=O)N1C (mixture of isomers) [Example 28, (8RS,12S,18aR,21R)-N-(3-(2H-1,2,3-triazol-2-yl)phenethyl)-21-benzyl-12-isobutyl-5,11-dimethyl-6,10,13,19-tetraoxo-6,7,8,9,10,11,12,13,16,17,18,18a,19,20,21,22-hexadecahydro-5H,15H-imidazo[4′,5′:5,6]benzo[1,2-p]pyrido[2,1-f][1]oxa[4,7,10,14]tetraazacycloheptadecine-8-carboxamide] | 603 nM |  | 
COc1cccc(CCNC(=O)[C@@H]2CC(=O)N(C)[C@@H](CC(C)C)C(=O)N3CCCC[C@@H]3C(=O)N[C@H](Cc3ccccc3)COc3cnc4ccccc4c3C(=O)N2)c1OC [Example 81, (9S,13S,19aR,22R)-22-benzyl-N-(2,3-dimethoxyphenethyl)-13-isobutyl-12-methyl-7,11,14,20-tetraoxo-7,8,9,10,11,12,13,14,17,18,19,19a,20,21,22,23-hexadecahydro-16H-pyrido[2′,11:6,7][1]oxa[4,7,10,14]tetraazacycloheptadecino[17,16-c]quinoline-9-carboxamide] | 233 nM | 232% | 
CC(C)C[C@H]1C(=O)N(C)[C@H](C)C(=O)N[C@H](Cc2ccccc2)COc2ccc3nccn3c2C(=O)N[C@H](C(=O)NCCc2cc(C3CC3)no2)CC(=O)N1C [Example 790, (3S,7S,10R,13R)-13-benzyl-N-(2-(3-cyclopropylisoxazol-5-yl)ethyl)-7-isobutyl-6,9,10-trimethyl-1,5,8,11-tetraoxo-1,2,3,4,5,6,7,8,9,10,11,12,13,14-tetradecahydroimidazo[1′,2′:1,6]pyrido[2,3-p][1]oxa[4,7,10,14]tetraazacycloheptadecine-3-carboxamide] |  |  | EC50 [5]: 650 nM; Emax [6]: 350%
COc1cc(CCNC(=O)[C@@H]2CC(=O)N(C)[C@@H](CC(C)C)C(=O)N3CCCC[C@H]3C(=O)N[C@H](Cc3ccccc3)COc3ccc4ncc(F)cc4c3C(=O)N2)on1 [Example 770, (9S,13S,19aS,22R)-22-benzyl-5-fluoro-13-isobutyl-N-(2-(3-methoxyisoxazol-5-yl)ethyl)-12-methyl-7,11,14,20-tetraoxo-7,8,9,10,11,12,13,14,17,18,19,19a,20,21,22,23-hexadecahydro-16H-pyrido[2′,1′:6,7][1]oxa[4,7,10,14]tetraazacycloheptadecino[16,17-f]quinoline-9-carboxamide] |  |  | EC50 [5]: 1000 nM; Emax [6]: 228%
COc1cc(CCNC(=O)[C@@H]2CC(=O)N(C)[C@@H](CC(C)C)C(=O)N(C)[C@H](Cc3noc(C(C)(C)C)n3)C(=O)N[C@H](Cc3ccccc3)COc3ccc4ncc(F)cc4c3C(=O)N2)on1 [Example 972, (3S,7S,10R,13R)-13-benzyl-10-((5-(tert-butyl)-1,2,4-oxadiazol-3-yl)methyl)-20-fluoro-7-isobutyl-N-(2-(3-methoxyisoxazol-5-yl)ethyl)-6,9-dimethyl-1,5,8,11-tetraoxo-1,2,3,4,5,6,7,8,9,10,11,12,13,14-tetradecahydro-[1]oxa[4,7,10,14]tetraazacycloheptadecino[16,17-f]quinoline-3-carboxamide] |  |  | EC50 [1]: 128 nM; Emax [2]: 436%
Cc1nc2ccc3c(c2o1)C(=O)N[C@H](C(=O)NCCc1c(F)cccc1F)CC(=O)N(C)[C@@H](CC(C)C)C(=O)N1CCCC[C@@H]1C(=O)N[C@H](Cc1ccccc1)CO3 [Example 482, (8S,12S,18aR,21R)-21-benzyl-N-(2,6-difluorophenethyl)-12-isobutyl-4,11-dimethyl-6,10,13,19-tetraoxo-6,7,8,9,10,11,12,13,16,17,18,18a,19,20,21,22-hexadecahydro-15H-oxazolo[4′,5′:5,6]benzo[1,2-p]pyrido[2,1-f][1]oxa[4,7,10,14]tetraazacycloheptadecine-8-carboxamide] |  |  | EC50 [5]: 414 nM; Emax [6]: 247%
